System: Humane Glykogenphosphorylase a
Assay: Glycogen phosphorylase a activity test (reverse direction, release of inorganic phosphate)
Type: biochemical, human
Details: 10 µM test substance; 40 min at room temperature; duplicate determinations
Description: Glykogenphosphorylase a Aktivitätstest
Der Effekt von Verbindungen auf die Aktivität der aktiven Form der Glykogenphosphorylase (GPa) wurde in der umgekehrten Richtung, durch Verfolgen der Glykogensynthese aus Glukose-1-Phosphat an Hand der Bestimmung der Freisetzung von anorganischem Phosphat, gemessen. Alle Reaktionen wurden als Doppelbestimmungen in Mikrotiterplatten mit 96-Vertiefungen (Half Area Plates, Costar Nr. 3696) durchgeführt, wobei die Änderung der Absorption auf Grund der Bildung des Reaktionsprodukts bei der weiter unten spezifizierten Wellenlänge in einem Multiskan Ascent Elisa Reader (Lab Systems, Finnland) gemessen wurde. Um die GPa Enzymaktivität in der umgekehrten Richtung zu messen, wurde die Umwandlung von Glukose-1-Phosphat in Glykogen und anorganisches Phosphat nach der allgemeinen Methode von Engers et al. (Engers HD, Shechosky S, Madsen NB, Can J Biochem 1970 Jul;48(7):746-754) mit folgenden Modifikationen gemessen: Humane Glykogenphosphorylase a (zum Beispiel mit 0,76 mg Protein / ml (Aventis Pharma Deutschland GmbH), gelöst in Pufferlösung E (25 mM β-Glyzerophosphat, pH 7,0, 1 mM EDTA und 1 mM Dithiotreitol) wurde mit Puffer T (50 mM Hepes, pH 7,0, 100 mM KCI, 2,5 mM. EDTA, 2,5 mM MgCl2·6H2O) und Zusatz von 5 mg/ml Glykogen auf eine Konzentration von 10 µg Protein/ml verdünnt. […]

% Inhibition bei 10 µM [%]	SMILES
3	CCOC(=O)c1ccc(NC(=O)NC(=O)c2c(F)cccc2F)cc1 [Vergleichsbeispiel A]
46	Cc1ccccc1C(=O)NC(=O)Nc1cc(C(=O)O)ccc1Cl [compound 5]
